Assay results: patent publication US12503473B2, “Triazolopyrimidine compounds and their use in treating cancer” (Dizal (Jiangsu) Pharmaceutical Co., Ltd., priority 2018, dated 2025)

What was measured:
[1] = system: NCI H358 subcutaneous xenograft; assay: Human lung cancer xenograft model, VEGFR TKI combination; type: in vivo, female nude mice; conditions: AZD2171 alone 3 mg/kg QD oral, 17 days dosing; p<0.001
Method: The in vivo efficacy of MCT4 inhibitors has been tested in human xenograft models. The NSCLC cell line NCI H358 can be grown as a subcutaneous xenograft in female nude mice and tumour volume calculated from bilateral caliper measurements. For efficacy studies three million NCI H358 cells were inoculated sub-cutaneously onto the left flank of the animal in a volume of 0.1 ml serum free media (RPMI) and matrigel. Animals were assigned into treatment groups 14 days after cell implantation and received either AZD2171 (3 mg/kg QD) (Wedge et al., (2005) Cancer Res. 65:4389-4400), a compound of Formula (I) (100 mg/kg BID) or the combination of both by oral gavage. A vehicle control of 0.5% hydroxy propyl methyl cellulose/0.1% Tween 80 was dosed twice daily given orally. Dosing was continued for 17 days and tumour volume, body weight and tumour condition were recorded twice weekly for the duration of the study.

MCT1 = molecular target: T1, MCT1 (Homo sapiens, UniProt P53985); assay: Assay (c): FLIPR BCECF lactate influx in K562 cells; type: cell-based; conditions: mean of at least three repeats, read-out: MCT1 FLIPR pIC50 (K562) (converted)
T1 construct: a human erythroleukemia line predominantly expressing MCT1, a small amount of MCT2 and no MCT4; host or cells: K562
T1 sequence (P53985 1-500): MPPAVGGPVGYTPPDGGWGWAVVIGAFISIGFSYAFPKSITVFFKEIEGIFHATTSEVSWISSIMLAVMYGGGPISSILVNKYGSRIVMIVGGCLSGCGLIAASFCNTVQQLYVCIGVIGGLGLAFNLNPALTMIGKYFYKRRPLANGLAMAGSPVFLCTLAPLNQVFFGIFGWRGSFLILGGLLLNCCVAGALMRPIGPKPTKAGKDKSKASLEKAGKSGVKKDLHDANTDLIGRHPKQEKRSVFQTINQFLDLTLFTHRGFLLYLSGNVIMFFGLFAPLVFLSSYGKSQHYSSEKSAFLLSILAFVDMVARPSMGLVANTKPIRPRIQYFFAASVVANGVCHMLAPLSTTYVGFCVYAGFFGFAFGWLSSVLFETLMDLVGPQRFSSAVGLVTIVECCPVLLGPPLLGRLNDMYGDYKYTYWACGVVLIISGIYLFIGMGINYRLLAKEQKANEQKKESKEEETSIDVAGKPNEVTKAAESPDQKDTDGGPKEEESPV
Method: (§1) Cells were loaded with the pH sensitive dye BCECFAM(Invitrogen #B11150) before being washed to remove excess dye and seeded into the assay plates—directly onto the test compound—at a density of 15,000 cells/well (NCI—H358) or 30,000 cells/well (K562), in 30 μl HBSS with 1 mM [final] […] Assay plates were lidded and spun in a plate centrifuge at 170 g for 1 minute. Plates were then wrapped in foil and incubated in the dark for 1 hour at room temperature.
(§2) Following incubation with test compound, 10 μl of 25 mM Sodium-L-Lactate (Sigma #L7022) made up in HBSS with 1 mM [final] […] This addition was performed directly on the FLIPR Tetra platform (Molecular Devices) as part of a real-time kinetic read protocol. […] A percentage change from base-line was calculated for each test well and values normalised to control wells—treated with either DMSO (maximum assay signal) or chemistry related to that described in this patent (minimum assay signal)—before fitting concentration response curves to determine an IC50 value.

MCT4 [2] = molecular target: T2, MCT4 (Homo sapiens, UniProt O15427); assay: cell-based
T2 sequence (O15427 1-465): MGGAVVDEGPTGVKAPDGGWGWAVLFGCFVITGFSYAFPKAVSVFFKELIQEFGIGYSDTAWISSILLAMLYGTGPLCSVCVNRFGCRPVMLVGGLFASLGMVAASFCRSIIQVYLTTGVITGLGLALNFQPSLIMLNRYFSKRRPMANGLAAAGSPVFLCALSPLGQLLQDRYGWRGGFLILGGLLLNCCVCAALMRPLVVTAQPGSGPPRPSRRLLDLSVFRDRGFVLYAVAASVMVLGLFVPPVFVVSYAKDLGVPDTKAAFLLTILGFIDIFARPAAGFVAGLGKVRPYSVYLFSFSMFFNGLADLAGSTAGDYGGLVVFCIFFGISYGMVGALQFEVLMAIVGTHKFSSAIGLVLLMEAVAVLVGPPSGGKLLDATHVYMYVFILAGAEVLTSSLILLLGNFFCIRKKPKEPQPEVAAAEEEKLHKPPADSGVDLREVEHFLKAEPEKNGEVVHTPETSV
Method: as §1, §2

MCT4 [3] = molecular target: T2, MCT4; assay: Assay (d): FLIPR BCECF lactate influx in INS-1 MCT4 cells; type: cell-based, rat; design: expressed in transfected cells; conditions: INS-1 cells stably expressing human MCT4; mean of at least three repeats; read-out: MCT4 FLIPR pIC50 (INS-1) (converted)
Method: INS-1 MCT4 cells were generated through transfection of the parental cell background with the following DNA sequence, inserted into a pcDNA3.1 (ThermoFisher #V79020) mammalian expression vector:
The resultant cell pool was continually cultured at 37° C. and 5% CO2 under antibiotic selection in RPMI (Sigma #R0883) medium containing 1% L glutamine (Sigma #G7513), 10% FBS (Sigma #F7524), 10 mM [final] […] An individual clone was selected and expanded before being cryopreserved in a number of individual vials for continued use. Prior to testing in the biological assay, an individual INS-1 MCT4 cryovial was defrosted and continually passaged over a number of weeks—in the Geneticin selection media described previously—to obtain the requesite cell number.

MCT4 [4] = molecular target: T2, MCT4; assay: Assay (a): lactate efflux from SK-Br-3 cells (lactate in media, 4 h); type: cell-based; design: a natively glycolytic human breast adenocarcinoma line predominantly expressing MCT4; host or cells: SK-Br-3; conditions: mean of at least three repeats (Example 32, marked *, two repeats), read-out: MCT4 lactate efflux pIC50 (SKBR3) (converted)
Method: Assay plates were lidded and incubated for 4 hours at 37° C. and 5% CO2.

| SMILES | IC50 (MCT1) [µM] | IC50 (MCT4 [2]) [nM] | IC50 (MCT4 [3]) [nM] | IC50 (MCT4 [4]) [nM] | tumour regression compared to the vehicle group [1] [%] |
| --- | --- | --- | --- | --- | --- |
| COc1cc2c(Oc3ccc4[nH]c(C)cc4c3F)ncnc2cc1OCCCN1CCCC1 [AZD2171, reference compound] |  |  |  |  | 33 |
| COCCN1CCN(Cc2ccc(-c3cnc(N4CC[C@@H](Cc5c(C)nc6nc(C)nn6c5C)C4)cn3)cc2)CC1 [Example 42, (R)-6-((1-(5-(4-((4-(2-methoxyethyl)piperazin-1-yl)methyl)phenyl)pyrazin-2-yl)pyrrolidin-3-yl)methyl)-2,5,7-trimethyl-[1,2,4]triazolo[1,5-a]pyrimidine] | > 25.1 | 10 | 6.31 | 0.794 |  |
| Cc1nc2nc(C)c(C[C@@H]3CCN(c4cnc(-c5ccc(CN6CCOCC6)cc5)cn4)C3)c(C)n2n1 [Example 60, (R)-4-(4-(5-(3-((2,5,7-trimethyl-[1,2,4]triazolo[1,5-a]pyrimidin-6-yl)methyl)pyrrolidin-1-yl)pyrazin-2-yl)benzyl)morpholine] | 12.6 | 7.94 | 5.01 | 0.398 |  |
| Cc1nc2nc(C)c(O[C@@H]3CCN(c4ccc(-c5ccc(CN6C7CCC6CN(C)C7)nn5)cc4)C3)c(C)n2n1 [Example 66, 2,5,7-trimethyl-6-(((3R)-1-(4-(6-((3-methyl-3,8-diazabicyclo[3.2.1]octan-8-yl)methyl)pyridazin-3-yl)phenyl)pyrrolidin-3-yl)oxy)-[1,2,4]triazolo[1,5-a]pyrimidine] | > 25.1 | 50.1 | 25.1 | 2 |  |
| Cc1nc2nc(C)c(O[C@@H]3CCN(c4ccc(-c5cnc(CN6CCOCC6)nc5)cc4)C3)c(C)n2n1 [Example 69, (R)-4-((5-(4-(3-((2,5,7-trimethyl-[1,2,4]triazolo[1,5-a]pyrimidin-6-yl)oxy)pyrrolidin-1-yl)phenyl)pyrimidin-2-yl)methyl)morpholine] | > 25.1 | 12.6 | 3.16 | 2 |  |
| Cc1nc2nc(C)c(O[C@@H]3CCN(c4ccc(-c5ccc(CN6CCOCC6)cn5)cn4)C3)c(C)n2n1 [Example 74, (R)-4-((6′-(3-((2,5,7-trimethyl-[1,2,4]triazolo[1,5-a]pyrimidin-6-yl)oxy)pyrrolidin-1-yl)-[2,3′-bipyridin]-5-yl)methyl)morpholine] | > 25.1 | 10 | 2 | 2 |  |
| Cc1nc2nc(C)c(O[C@@H]3CCN(c4ccc(-c5ccc(CN6CCOCC6)nc5)cn4)C3)c(C)n2n1 [Example 75, (R)-4-((6′-(3-((2,5,7-trimethyl-[1,2,4]triazolo[1,5-a]pyrimidin-6-yl)oxy)pyrrolidin-1-yl)-[3,3′-bipyridin]-6-yl)methyl)morpholine] | > 25.1 | 12.6 | 3.16 | 3.16 |  |
| Cc1nc2nc(C)c(C[C@@H]3CCN(c4cnc(-c5ccc(CN6CCCC6)cn5)cn4)C3)c(C)n2n1 [Example 81, (R)-2,5,7-trimethyl-6-((1-(5-(5-(pyrrolidin-1-ylmethyl)pyridin-2-yl)pyrazin-2-yl)pyrrolidin-3-yl)methyl)-[1,2,4]triazolo[1,5-a]pyrimidine] | 5.01 | 15.8 | 3.16 | 3.16 |  |

More lines, main results first:

| IC50 (MCT1) [µM] | IC50 (MCT4 [2]) [nM] | IC50 (MCT4 [3]) [nM] | IC50 (MCT4 [4]) [nM] | SMILES | tumour regression compared to the vehicle group [1] [%] |
| --- | --- | --- | --- | --- | --- |
| > 25.1 | 50.1 | 15.8 | 1.58 | Cc1nc2nc(C)c(O[C@@H]3CCN(c4ccc(-c5ccc(CN6CCCCC6)nn5)cc4)C3)c(C)n2n1 [Example 64, (R)-2,5,7-trimethyl-6-((1-(4-(6-(piperidin-1-ylmethyl)pyridazin-3-yl)phenyl)pyrrolidin-3-yl)oxy)-[1,2,4]triazolo[1,5-a]pyrimidine] |  |
| > 25.1 | 5.01 | 1.58 | 0.631 | Cc1nc2nc(C)c(O[C@@H]3CCN(c4ccc(-c5cnc(CN6CCOCC6)cn5)cc4)C3)c(C)n2n1 [Example 70, (R)-4-((5-(4-(3-((2,5,7-trimethyl-[1,2,4]triazolo[1,5-a]pyrimidin-6-yl)oxy)pyrrolidin-1-yl)phenyl)pyrazin-2-yl)methyl)morpholine] |  |
| > 25.1 | 50.1 | 31.6 | 3.16 | COCCN1CCN(Cc2ccc(-c3ccc(N4CC[C@@H](Oc5c(C)nc6nc(C)nn6c5C)C4)cc3)nn2)CC1 [Example 73, (R)-6-((1-(4-(6-((4-(2-methoxyethyl)piperazin-1-yl)methyl)pyridazin-3-yl)phenyl)pyrrolidin-3-yl)oxy)-2,5,7-trimethyl-[1,2,4]triazolo[1,5-a]pyrimidine] |  |
| > 25.1 | 7.94 | 3.98 | 1 | Cc1nc2nc(C)c(O[C@@H]3CCN(c4ccc(-c5ccc(CN6CCCOCC6)nn5)cc4)C3)c(C)n2n1 [Example 84, (R)-4-((6-(4-(3-((2,5,7-trimethyl-[1,2,4]triazolo[1,5-a]pyrimidin-6-yl)oxy)pyrrolidin-1-yl)phenyl)pyridazin-3-yl)methyl)-1,4-oxazepane] |  |
| > 25.1 | 20 | 6.31 | 1.26 | Cc1nc2nc(C)c(O[C@@H]3CCN(c4ccc(-c5ccc(CN6CCCCCC6)nn5)cc4)C3)c(C)n2n1 [Example 85, (R)-6-((1-(4-(6-(azepan-1-ylmethyl)pyridazin-3-yl)phenyl)pyrrolidin-3-yl)oxy)-2,5,7-trimethyl-[1,2,4]triazolo[1,5-a]pyrimidine] |  |
